# Measured values as given in patent US20040198794A1, “Ondansetron forms and processes of making the same” (priority 2003, published 2004).
# What was measured:
# Format in all cases: physicochemical
# [1] = Storage stability of solid ondansetron forms
# [2] = Solvent-induced conversion between forms by slurrying
# Description: It is sensitive to a solvent-induced conversion into a form II defined below by slurrying in some polar solvents, e.g. in methanol or water, while it is inert to the same slurrying or solvent treatment in non-polar solvents. […] Form II is resistant to a solvent-inducing conversion to form I at ambient temperature.
# [3] = Dissolution and release of microcrystalline ondansetron; conditions: particle size smaller than 200 microns
# Description: It has been further discovered that ondansetron base having a particle size smaller than 200 microns (hereinafter “microcrystalline ondansetron”) is more suitable in making pharmaceutical formulations.
# [4] = Hydration of solid ondansetron base on exposure to humidity
# Description: After storage of the anhydrate form at humidity exceeding 10% RH, hydrates may be formed. A stable hydrated form comprise 1.3-1.5% of water, this corresponding to approximately 0.25 molar equivalent of water (a hemi-hemihydrate). Accordingly, another ondansetron form of the present invention is an ondansetron hydrate comprising ondansetron and water wherein the amount of water relative to ondansetron is within the range of 0.23-0.27 moles, more preferably 0.24-0.26 moles, per each one mole of ondansetron. Exposure of this or the anhydrated product to enhanced humidity (70% RH) results in a product having about 3% water content which corresponds to a hemihydrate (0.5 molar equivalent of water). Exposure to extreme humidity of about 90% or more leads to a monohydrate form of about 5% water. The most useful hydrated form of ondansetron base is the hemi-hemi hydrate as this is formed under most precipitation conditions and is stable. The above forms I or II are preferably hydrates containing 1.3-1.5% of water.
structure (smiles),measurement,setting,value
Cc1nccn1CC1CCc2c(c3ccccc3n2C)C1=O (stereo not shown) [Form II],form conversion during storage,[1]; prolonged storage at 40° C./75% relative humidity (RH),partial conversion to Form I
same,stability during storage,"[1]; room temperature, stored in closed vial",stable
same,solvent-inducing conversion to form I,[2]; ambient temperature,resistant
Cc1nccn1CC1CCc2c(c3ccccc3n2C)C1=O (stereo not shown) [form I],stability during storage,[1]; storage at ambient and elevated temperatures,sufficiently stable
same,solvent-induced conversion into form II,"[2]; slurrying in some polar solvents, e.g. methanol or water",sensitive
same,solvent-induced conversion into form II,[2]; slurrying or solvent treatment in non-polar solvents,inert
Cc1nccn1CC1CCc2c(c3ccccc3n2C)C1=O (stereo not shown) [microcrystalline ondansetron],dissolution in liquid medium,[3]; making liquid compositions,dissolves more rapidly
same,release from the tablet composition,[3],releases more rapidly
Cc1nccn1CC1CCc2c(c3ccccc3n2C)C1=O (stereo not shown) [ondansetron base],water content after exposure to humidity,"[4]; enhanced humidity (70% RH), corresponds to a hemihydrate",about 3%
same,water content after exposure to humidity,"[4]; extreme humidity of about 90% or more, monohydrate form",about 5%
